Source: patent publication US20260293897A1, “COMPOUND CONTAINING FIVE-MEMBERED HETEROCYCLE, PREPARATION METHOD THEREFOR, AND APPLICATION THEREOF” (QINGDAO KANGQIAO PESTICIDES AND CHEMICALS GROUP CO., LTD., priority 2022, published 2026)
Read-outs that look alike come from different tables or passages of the source.

Assays:
Assay type in all cases: in vivo
[1] = tested on: Resistant Plutella xylostella; test: Resistant Plutella xylostella Controlling Activity Test; details: Plutella xylostella, in Raphanus sativus, 72 h
Procedure: Resistant Plutella xylostella Controlling Activity Test:
Leaf dipping method was used, the appropriate amount of radish leaves were dipped into the drug for 10 s, placed in a plastic petri dish padded with filter paper and dried naturally, each dish was connected with 10 heads of 2nd instar small cabbage moths, placed in the observation room at 24° C. and light (16/8 h). 72 h later observation was made, and the body of the insect was touched lightly with a brush and no reaction was regarded as a dead insect, which was repeated for three times, and a blank control was also set up without any additional agent.

[2] = tested on: Tetranychus cinnabarinus; test: Tetranychus cinnabarinus Controlling Activity Test; details: 72 h; for mortality at 1.6 ppm: read-out: mortality against Tetranychus cinnabarinus; for mortality at 1.56 ppm / mortality at 3.125 ppm / mortality at 6.25 ppm / mortality at 12.5 ppm: in Phaseolus vulgaris
Procedure: Tetranychus cinnabarinus Controlling Activity Test:
The test compound was dissolved in acetone and diluted to the desired concentration with 0.1 wt % aqueous tween 80, the acetone content not exceeding 5 wt %.
One real leaf was removed from kidney bean seedlings grown to two real leaves, inoculating Tetranychus cinnabarinus, investigating the base number, performing whole plant spraying treatment by using a handheld sprayer, repeating the treatment for 3 times (the application amount of the preparation is about 0.5 g), observing in a constant-temperature observation room after the treatment, investigating the number of live mites after 72 hours, and calculating the mortality. The number of Tetranychus cinnabarinus inoculated in each time is 35-100.
Mortality%=(number of inoculated insects−number of live insects after drug administration)÷number of inoculated insects×100%

[3] = tested on: Frankliniella occidentalis larvae; test: Frankliniella occidentalis Larva Controlling Activity Test; details: for mortality at 3.25 ppm: read-out: mortality for Frankliniella occidentalis larvae
Procedure: Frankliniella occidentalis Larva Controlling Activity Test:
The test compound is dissolved in acetone and diluted to the desired concentration. 0.5 mL of the prepared acetone medicinal liquid is added into a glass tube (the inner diameter is 1 cm, the length is 10 cm), and the glass tube is repeatedly rolled on a flat table until the acetone solution is completely volatilized. Soaking cabbage leaves in the liquid medicine with the corresponding concentration for 15 s, drying, placing in a glass tube, inoculating 10-20 heads of Frankliniella occidentalis larvae in the glass tube, repeating the treatment for three times, observing in a constant-temperature observation room after the treatment, investigating the number of live insects after 72 hours, and calculating the mortality.

[4] = tested on: Sensitive Plutella xylostella; test: Sensitive Plutella xylostella Controlling Activity Test
Description: Sensitive Plutella xylostella Controlling Activity Test:
Test targets: Plutella xylostella, 3 rd instar larvae, a sensitive strain raised indoors.
The test method comprises the following steps: selecting fresh cabbage leaves cultivated in a greenhouse, making the cabbage leaves into round with the diameter of 3 cm by using a puncher, putting the circular blade into prepared liquid medicine to be soaked for 10 s according to the sequence from low dose to high dose of experimental design, naturally drying the cabbage leaves in the shade, putting the soaked cabbage leaves into a culture dish with filter paper and the diameter of 9 cm, inoculating regular healthy test insects, n=10, repeating the treatment for 3 times, and additionally setting blank control.

[5] = tested on: Spodoptera frugiperda; test: Spodoptera frugiperda Indoor Toxicity Determination Test; details: in Zea mays, read-out: mortality against Spodoptera frugiperda
Description: Spodoptera frugiperda Indoor Toxicity Determination Test
Test targets: Spodoptera frugiperda, 3rd instar larvae, a sensitive strain raised indoors.
The test method comprises the following steps: firstly, selecting fresh corn leaves cultivated in a greenhouse, cutting the fresh corn leaves into 5 cm-long leaf segments, sequentially arranging the test design from low dose to high dose, soaking the fresh corn leaves in prepared liquid medicine for 10 s, naturally drying the fresh corn leaves in the shade, then placing the dried corn leaves in a culture dish with filter paper and the diameter of 9 cm, inoculating regular healthy test insects, n=10, repeating the treatment for 3 times, and additionally arranging blank control.

[6] = tested on: Phyllotreta striolata; test: Phyllotreta striolata Controlling Activity Test; details: 72 h, read-out: mortality against Phyllotreta striolata
Procedure: Phyllotreta striolata Controlling Activity Test:
Preparing liquid medicine according to the experimental design concentration, selecting fresh cabbage leaves, soaking the cabbage leaves for 15 s, taking out, airing, placing in a glass tube, connecting 20-25 heads of the Flea beetles adults with each tube, repeating the treatment for 3 times, investigating the death condition of the Phyllotreta striolata after 72 hours, and calculating and correcting the death rate.

[7] = read-out: mortality against Plutella xylostella
[8] = 3.25 ppm (3.125 mg/L), larvae, 72 hours
[9] = 1 ppm (1 mg/L), 3rd instar larvae, sensitive strain, read-out: mortality against Plutella xylostella

Compound: CNC(=O)c1cc(Cl)cc(C)c1NC(=O)c1cc(Br)nn1-c1ncccc1Cl [Chlorantraniliprole, reference compound]
- mortality at 0.2 ppm [1]: 33.3%
- mortality at 1 ppm [1]: 40%
- mortality at 5 ppm [1]: 66.7%

Compound: Cc1cc(C2=NOC(c3cc(Cl)c(Cl)c(Cl)c3)(C(F)(F)F)C2)ccc1C(=O)NC1CCS(=O)(=O)C1 (centres unmarked) [Compound I-3, N-(1,1-dioxotetrahydrothiophen-3-yl)-2-methyl-4-(5-(3,4,5-trichlorophenyl)-5-(trifluoromethyl)-4,5-dihydroisoxazol-3-yl) benzamide]
- mortality at 1.6 ppm [2]: > 90%
- mortality at 3.25 ppm ([3]; 72 h): > 90%
- mortality at 1 ppm [4, 7]: > 90%

Compound: CC(=O)N(C(=O)c1ccc(C2=NOC(c3cc(Cl)c(F)c(Cl)c3)(C(F)(F)F)C2)cc1C)C1CCS(=O)(=O)C1 (centres unmarked) [Compound I-9, N-acetyl-4-(5-(3,5-dichloro-4-fluorophenyl)-5-(trifluoromethyl)-4,5-dihydroisoxazol-3-yl)-N-(1,1-dioxotetrahydrothiophen-3-yl)-2-methylbenzamide]
- mortality at 1.6 ppm [2]: > 90%
- mortality at 3.25 ppm ([3]; 72 h): > 90%
- mortality at 0.2 ppm [1]: 43.3%
- mortality at 1 ppm [1]: 100%
- mortality at 5 ppm [1]: 100%
- mortality at 1 ppm [4, 7]: > 90%

Compound: CCC(=O)N(C(=O)c1ccc(C2=NOC(c3cc(Cl)c(F)c(Cl)c3)(C(F)(F)F)C2)cc1C)C1CCS(=O)(=O)C1 (centres unmarked) [Compound I-10, N-propionyl-4-(5-(3,5-dichloro-4-fluorophenyl)-5-(trifluoromethyl)-4,5-dihydroisoxazol-3-yl)-N-(1,1-dioxotetrahydrothiophen-3-yl)-2-methylbenzamide]
- mortality at 1.6 ppm [2]: > 90%
- mortality at 1.56 ppm [2]: 97.2%
- mortality at 3.125 ppm [2]: 100%
- mortality at 6.25 ppm [2]: 100%
- mortality at 12.5 ppm [2]: 100%
- mortality at 1 ppm [5]: > 90%
- mortality at 3.25 ppm ([3]; 72 h): > 90%
- mortality at 1.56 ppm ([3]; in Brassica oleracea, 72 h): 92%
- mortality at 3.125 ppm ([3]; in Brassica oleracea, 72 h): 100%
- mortality at 6.25 ppm ([3]; in Brassica oleracea, 72 h): 100%
- mortality at 1 ppm [4, 7]: > 90%

Compound: Cc1cc(C2=NOC(c3cc(Cl)c(F)c(Cl)c3)(C(F)(F)F)C2)ccc1C(=O)N[C@H]1CCS(=O)(=O)C1 (stereo partly drawn) [Compound I-13, 4-(5-(3,5-dichloro-4-fluorophenyl)-5-(trifluoromethyl)-4,5-dihydroisoxazol-3-yl)-N—((S)-1,1-dioxotetrahydrothiophen-3-yl)-2-methylbenzamide]
- mortality at 3.25 ppm ([3]; 72 h): > 90%
- mortality at 1 ppm [4, 7]: > 90%

Compound: Cc1cc(C2=NOC(c3cc(Cl)c(F)c(Cl)c3)(C(F)(F)F)C2)ccc1C(=O)N[C@@H]1CCS(=O)(=O)C1 (stereo partly drawn) [Compound I-14, 4-(5-(3,5-dichloro-4-fluorophenyl)-5-(trifluoromethyl)-4,5-dihydroisoxazol-3-yl)-N—((R)-1,1-dioxotetrahydrothiophen-3-yl)-2-methylbenzamide]
- mortality at 1.6 ppm [2]: > 90%
- mortality at 1.56 ppm [2]: 100%
- mortality at 3.125 ppm [2]: 100%
- mortality at 6.25 ppm [2]: 100%
- mortality at 12.5 ppm [2]: 100%
- mortality at 1 ppm [5]: > 90%
- mortality at 3.25 ppm ([3]; 72 h): > 90%
- mortality at 50 ppm [6]: > 90%
- mortality at 1 ppm [4, 7]: > 90%

Compound: Cc1cc(C2=NO[C@@](c3cc(Cl)c(F)c(Cl)c3)(C(F)(F)F)C2)ccc1C(=O)N[C@H]1CCS(=O)(=O)C1 [Compound I-15]
- mortality at 3.25 ppm [3, 8]: > 90%
- mortality at 1 ppm [4, 9]: > 90%

Compound: Cc1cc(C2=NO[C@@](c3cc(Cl)c(F)c(Cl)c3)(C(F)(F)F)C2)ccc1C(=O)N[C@@H]1CCS(=O)(=O)C1 [Compound I-16]
- mortality at 3.25 ppm [3, 8]: > 90%
- mortality at 1 ppm [4, 9]: > 90%

Compound: Cc1cc(C2=NO[C@@](c3cc(Cl)c(F)c(Cl)c3)(C(F)(F)F)C2)ccc1C(=O)NC1CCS(=O)(=O)C1 (stereo partly drawn) [Compound I-17, 4-((S)-5-(3,5-dichloro-4-fluorophenyl)-5-(trifluoromethyl)-4,5-dihydroisoxazol-3-yl)-N-(1,1-dioxotetrahydrothiophen-3-yl)-2-methylbenzamide]
- mortality at 1.6 ppm [2]: > 90%
- mortality at 1.56 ppm [2]: 100%
- mortality at 3.125 ppm [2]: 100%
- mortality at 6.25 ppm [2]: 100%
- mortality at 12.5 ppm [2]: 100%
- mortality at 3.25 ppm ([3]; 72 h): > 90%
- mortality at 50 ppm [6]: > 90%
- mortality at 1 ppm [4, 7]: > 90%

Compound: Cc1cc(C2=NO[C@](c3cc(Cl)c(F)c(Cl)c3)(C(F)(F)F)C2)ccc1C(=O)N[C@H]1CCS(=O)(=O)C1 [Compound I-18]
- mortality at 3.25 ppm [3, 8]: > 90%
- mortality at 1 ppm [4, 9]: > 90%

Compound: Cc1cc(C2=NOC(c3cc(Cl)c(F)c(Cl)c3)(C(F)(F)F)C2)ccc1C(=O)N(C(=O)C(C)C)C1CCS(=O)(=O)C1 (centres unmarked) [Compound I-21, N-isopropionyl-4-(5-(3,5-dichloro-4-fluorophenyl)-5-(trifluoromethyl)-4,5-dihydroisoxazol-3-yl)-N-(1,1-dioxotetrahydrothiophen-3-yl)-2-methylbenzamide]
- mortality at 3.25 ppm ([3]; 72 h): > 90%
- mortality at 1 ppm [4, 7]: > 90%

Compound: Cc1cc(C2=NOC(c3cc(Cl)c(F)c(Cl)c3)(C(F)(F)F)C2)ccc1C(=O)N(C(=O)C1CC1)C1CCS(=O)(=O)C1 (centres unmarked) [Compound I-22, N-cyclopropanoyl-4-(5-(3,5-dichloro-4-fluorophenyl)-5-(trifluoromethyl)-4,5-dihydroisoxazol-3-yl)-N-(1,1-dioxotetrahydrothiophen-3-yl)-2-methylbenzamide]
- mortality at 3.25 ppm ([3]; 72 h): > 90%
- mortality at 1 ppm [4, 7]: > 90%

Compound: Cc1cc(C2=NOC(c3cc(Cl)c(F)c(Cl)c3)(C(F)(F)F)C2)ccc1C(=O)NC1CCSC1 (centres unmarked) [Compound I-23]
- mortality at 3.25 ppm [3, 8]: > 90%
- mortality at 1 ppm [4, 9]: > 90%

Compound: CO/N=C/NC(=O)c1ccc(C2=NOC(c3cc(Cl)cc(Cl)c3)(C(F)(F)F)C2)cc1C (centres unmarked) [Fluxametamide, 4-[5-(3,5-dichlorophenyl)-4,5-dihydro-5-(trifluoromethyl)-3-isoxazolyl]-N-[(methoxyamino)methylene]-2-methylbenzamide, reference compound]
- mortality at 1.56 ppm [2]: 0%
- mortality at 3.125 ppm [2]: 25.6%
- mortality at 6.25 ppm [2]: 81.5%
- mortality at 12.5 ppm [2]: 96.8%
- mortality at 1.56 ppm ([3]; in Brassica oleracea, 72 h): 0%
- mortality at 3.125 ppm ([3]; in Brassica oleracea, 72 h): 0%
- mortality at 6.25 ppm ([3]; in Brassica oleracea, 72 h): 0%
- mortality at 0.2 ppm [1]: 3.33%
- mortality at 1 ppm [1]: 93.3%
- mortality at 5 ppm [1]: 100%
- mortality at 0.333 ppm ([4]; in Brassica oleracea, 72 h): 0%
- mortality at 1 ppm ([4]; in Brassica oleracea, 72 h): 5%

Compound: Cc1cc(C2=NOC(c3cc(Cl)c(F)c(Cl)c3)(C(F)(F)F)C2)ccc1C(=O)NC1CS(=O)(=O)C1 (centres unmarked) [X.82, reference compound]
- mortality at 1.56 ppm ([3]; 1.56 ppm, larvae, cabbage leaves soaked 15 s, 72 hours, read-out: Mortality (%)): 0%
- mortality at 3.125 ppm ([3]; 3.125 ppm, larvae, cabbage leaves soaked 15 s, 72 hours, read-out: Mortality (%)): 0%
- mortality at 6.25 ppm ([3]; 6.25 ppm, larvae, cabbage leaves soaked 15 s, 72 hours, read-out: Mortality (%)): 65%
- mortality at 0.333 ppm ([4]; 72 h, 0.333 ppm, 3rd instar larvae, sensitive strain, cabbage leaves soaked 10 s, three days, read-out: Mortality (%)): 0%
- mortality at 1 ppm ([4]; 72 h, 1 ppm, 3rd instar larvae, sensitive strain, cabbage leaves soaked 10 s, three days, read-out: Mortality (%)): 10%
